The assay addresses Envelope glycoprotein gp160 (Human immunodeficiency virus 1, UniProt Q6QLK5). Description: inhibitors of HIV fusion peptide binding, primary screen, biochemical, uHTS, fluorescence dequenching (AID 1986).

The source made the active and inactive calls. Rule as the data show it: actives have a measured IC50 and inactives only a lower limit.

Chain of Envelope glycoprotein gp160 (Q6QLK5 whole entry, the tested form may be a part): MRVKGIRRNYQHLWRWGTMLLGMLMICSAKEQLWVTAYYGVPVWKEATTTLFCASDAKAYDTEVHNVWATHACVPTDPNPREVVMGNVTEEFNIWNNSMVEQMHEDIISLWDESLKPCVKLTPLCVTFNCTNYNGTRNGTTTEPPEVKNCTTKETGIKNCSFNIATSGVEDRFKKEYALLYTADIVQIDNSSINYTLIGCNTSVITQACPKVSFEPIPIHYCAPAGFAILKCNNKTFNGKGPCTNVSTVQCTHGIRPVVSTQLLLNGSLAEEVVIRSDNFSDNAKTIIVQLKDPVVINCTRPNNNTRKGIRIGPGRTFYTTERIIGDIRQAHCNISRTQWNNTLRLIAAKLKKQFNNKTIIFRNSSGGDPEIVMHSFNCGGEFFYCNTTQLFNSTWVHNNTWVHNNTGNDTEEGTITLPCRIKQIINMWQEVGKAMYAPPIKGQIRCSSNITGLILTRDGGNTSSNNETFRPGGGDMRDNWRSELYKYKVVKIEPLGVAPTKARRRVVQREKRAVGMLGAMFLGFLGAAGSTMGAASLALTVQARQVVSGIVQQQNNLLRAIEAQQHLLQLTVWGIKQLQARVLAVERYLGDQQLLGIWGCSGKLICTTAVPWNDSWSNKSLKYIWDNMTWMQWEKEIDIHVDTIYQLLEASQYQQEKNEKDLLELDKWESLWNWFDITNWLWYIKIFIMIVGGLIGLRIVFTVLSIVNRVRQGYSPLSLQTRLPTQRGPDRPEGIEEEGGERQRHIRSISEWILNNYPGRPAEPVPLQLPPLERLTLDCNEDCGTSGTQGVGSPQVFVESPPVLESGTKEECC

In general, IC50 refers to the concentration needed to halve the response being measured. As for `Cc1ccc(/C=C2\SC(=S)N(CCCC(=O)Nc3ccccc3C(=O)O)C2=O)cc1`, the IC50 is 27.8 µM (active).
For the compound `CS(=O)(=O)C1=NSC2=NC(=O)/C(=C\c3ccc(OC(=O)c4ccco4)c(Br)c3)C(=N)N21`, the IC50 is 16 µM (active).

(Values after ChEMBL document CHEMBL1201862, “PubChem BioAssay data set” (2004).)
